Data published in the METLIN SMRT retention time set (Domingo-Almenara et al. 2019).

Test: gradient 5% acetonitrile 3 min, to 50% in 2 min, to 85% in 15 min, held 3 min, 100 µL/min
Conditions: column: Zorbax Extend-C18 2.1 x 50 mm; eluents: water / acetonitrile, 0.1% formic acid
In short: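 Values are retention times taken from adduct peaks that software picked and an analyst inspected. The pure standards were run as mixtures of ~100 molecules on HPLC linked to a quadrupole time-of-flight mass spectrometer, in positive and negative ionization mode. A Zorbax Extend-C18 column (2.1 × 50 mm, 1.8 μm) was used at 100 μL/min with water and acetonitrile, each including 0.1% formic acid.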

Row | RP-LC retention time [s] | Structure (SMILES)
1 | 986 | Cn1cc2c3c(cccc31)CN(C(=O)Cc1ccc(Cl)cc1)CC2
2 | 718 | CCOC(=O)CNC(=O)N1CCCN(C2=NS(=O)(=O)C(c3ccccc3)=C2C)CC1
3 | 818 | COC(=O)c1cc(S(=O)(=O)N2CCCC2C(=O)Nc2ccccc2)cn1C (configuration not stated)
4 | 700 | Cc1ccc(-c2nnc(C)c(NCc3cccs3)n2)cc1
5 | 612 | Cc1nc(-c2ccc(C)c(S(=O)(=O)NCCN(C)C)c2)cs1
6 | 706 | Cc1cc(C)cc(NC(=O)N2CC(c3nc(C)no3)C3(CCOCC3)C2)c1 (configuration not stated)
7 | 565 | CCCn1c(C)cnc1C1CN(S(=O)(=O)c2ccccc2)C1
8 | 944 | O=C(CN1C(=O)CCCc2ccccc21)N1CCN(c2ccc(Cl)cc2)CC1
9 | 896 | Cc1ccc2[nH]cc(CCNC(=O)CCC(=O)N3CCSc4c3c(C)nn4-c3ccccc3)c2c1
10 | 688 | CC1CCN(C(=O)CCC(=O)N2CCN(c3nc4cccnc4s3)CC2)CC1
11 | 959 | Cc1cc(NC(=O)Cn2c(=O)cc(-c3nc(C(C)C)no3)c3ccccc32)ccc1F
12 | 642 | COC(=O)c1ccc(Cn2nc(C3CCN(S(C)(=O)=O)CC3)n(C)c2=O)cc1
13 | 944 | O=C(Nc1nnc(SCc2ccccc2F)s1)c1ccccc1C(F)(F)F
14 | 640 | Cc1cccc(-c2nc3ccccn3c2NC(=O)NCc2ccco2)c1
15 | 1010 | CSc1ccc(-c2nc3cnccn3c2NC2CCCCC2)cc1
16 | 994 | O=C(Cn1cnc2c(sc3nc(-c4ccccc4)ccc32)c1=O)Nc1ccc(F)cc1
17 | 853 | COc1cccc(N2C=C(C(=O)N3CCCC3)S(=O)(=O)c3ccc(Cl)cc32)c1
18 | 808 | O=C(Nc1cccc2c1CCCC2)C1CCN(S(=O)(=O)c2ccc3[nH]c(=O)ccc3c2)CC1

Row | RP-LC retention time [s] | Structure (SMILES)
19 | 773 | O=c1ccc(N2CCC(NS(=O)(=O)c3cccc(F)c3)C2)nn1CC1CC1 (configuration not stated)
20 | 741 | O=C(NCC1CCN(C(=O)Oc2ccccc2)CC1)C(=O)Nc1ccon1
21 | 1100 | COc1ccc(S(=O)(=O)N2CCC(c3noc(-c4cccc(F)c4)n3)CC2)cc1
22 | 683 | Cc1noc(-c2ccnc(-n3cnc(C(=O)NCCc4ccc(Cl)cc4)c3)c2)n1
23 | 654 | COc1ccc(-c2n[nH]c3c2C(c2cccc(O)c2)NC3=O)cc1 (configuration not stated)
24 | 606 | COc1ccc(C(=O)Oc2ccc(/C=C/c3ccncc3)cc2OC)cc1OC
25 | 782 | CC(C)NC(=O)C1(c2ccc(NS(C)(=O)=O)cc2)CCCCC1
26 | 747 | O=C(NCc1ccccc1F)C1CCN(C(=O)c2ncn3c2COC(c2ccccc2)C3)CC1 (configuration not stated)
27 | 732 | CCn1cc(CC(=O)NC(C)c2ccc(F)cc2)c2cccnc21 (configuration not stated)
28 | 714 | Cc1csc(NC(=O)C2CCCN(S(=O)(=O)c3c[nH]c(C(=O)N4CCCC4)c3)C2)n1 (configuration not stated)
29 | 1250 | Cc1ccc(C)c(N2CCN(C(=O)C3CCCCN3S(=O)(=O)c3ccc(F)cc3)CC2)c1 (configuration not stated)
30 | 648 | Cc1nn(C)c(C)c1CCN(C)C(=O)CC1=C2CCCCC2N(C(C)C)C1=O (configuration not stated)
31 | 997 | CCSc1nc2ccc(NS(=O)(=O)c3ccccc3)cc2s1
32 | 800 | CCc1noc2nc(C)n(CC(=O)NCCc3ccccc3)c(=O)c12
33 | 1190 | O=S(=O)(c1ccccc1F)N1CCc2nc(-c3ccc(Cl)cc3)ncc2C1
34 | 851 | COCCN1C(=O)CCc2cc(NS(=O)(=O)c3ccc(C)c(Cl)c3)ccc21
35 | 907 | Cc1ccc(-c2cnn(CC(=O)Nc3ccc(Br)cc3)c(=O)n2)cc1
36 | 1070 | COc1cccc(-c2noc(CN3C(=O)COc4ccc(Cl)cc43)n2)c1

Row | Structure (SMILES) | RP-LC retention time [s]
37 | Cn1cc(C(=O)NC2CCCCC2)c2cccnc21 | 726
